Consider two molecules from patent publication US6649760B2, “Substituted phenyluracils” (priority 2000, dated 2003).

The subject of data set [1] is weeds. The experiment in a line: Pre-emergence test (Example A). It counts as in vivo. Particulars: soil sprayed 24 hours after sowing, rated after three weeks vs untreated control. The method, then: (§1) Solvent: 5 parts by weight of acetone
(§2) Emulsifier: 1 part by weight of alkylaryl polyglycol ether
(§3) To produce a suitable preparation of active compound, 1 part by weight of active compound is mixed with the stated amount of solvent, the stated amount of emulsifier is added and the concentrate is diluted with water to the desired concentration.
Seeds of the test plants are sown in normal soil. After 24 hours, the soil is sprayed with the preparation of active compound such that the particular amount of active compound desired is applied per unit area. The concentration of active compound in the spray liquor is chosen such that the particular amount of active compound desired is applied in 1000 liters of water per hectare.
After three weeks, the degree of damage to the plants is rated in % damage in comparison to the development of the untreated control. The figures denote:
(§4) 0%=no effect (like untreated control)

In data set [2] the test system is weeds. As to the kind of experiment: Post-emergence test (Example B). It counts as in vivo. Particulars: test plants of 5-15 cm sprayed, rated after three weeks vs untreated control. Here is the method:
as §1, §2, §3
Test plants of a height of 5-15 cm are sprayed with the preparation of active compound such that the particular amounts of active compound desired are applied per unit area. The concentration of the spray liquor is chosen such that the particular amounts of active compound desired are applied in 1000 l of water/ha.
After three weeks, the degree of damage to the plants is rated in % damage in comparison to the development of the untreated control.
as §4

Data set [3] is described as follows: log P determination by HPLC (reversed-phase C18), EEC Directive 79/831 Annex V.A8. It counts as physicochemical. Particulars: reversed-phase C18 HPLC column; a) acidic range: 0.1% aqueous phosphoric acid, acetonitrile, linear gradient 10% to 90% acetonitrile; HPLC C18, 43° C. From the text: (a) Mobile phases for the determination in the acidic range: 0.1% aqueous phosphoric acid, acetonitrile; linear gradient from 10% acetonitrile to 90% acetonitrile—the corresponding test results in Table I are labelled a).
(b) Mobile phases for the determination in the neutral range: 0.01 molar aqueous phosphate buffer solution, acetonitrile; linear gradient from 10% acetonitrile to 90% acetonitrile—the corresponding test results in Table 1 are labelled b).

SMILES strings stand for the structures.

On to `Cn1c(C(F)(F)F)cc(=O)n(-c2cc(Oc3ncccn3)c(Br)cc2F)c1=O` [Example 2, 1-[4-bromo-2-fluoro-5-(pyrimidin-2-yl-oxy)-phenyl]-3-methyl-4-trifluoromethyl-3 ,6-dihydro-2,6-dioxo-1 (2H)-pyrimidine], for which the “activity against weeds (degree of damage to the plants)” value in the data set on weeds [1] and in the data set with weeds [2] was “very strong activity” each time. Besides, the chromatographic logP in data set [3] stood at 2.47.
The molecule `O=c1cc(C(F)(F)F)[nH]c(=O)n1-c1cc(Oc2ncccn2)c(Br)cc1F` [Example 1, 1-[4-bromo-2-fluoro-5-(pyrimidin-2-yl-oxy)-phenyl]-4-trifluoromethyl-3,6-dihydro-2,6-dioxo-1 (2H)-pyrimidine] had a chromatographic logP in data set [3] of 1.96.
